The numbers were not newly measured in patent US10561704B2, “Compositions and methods for treating neuropsychiatric disorders using an endothelin-B receptor agonist” (MIDWESTERN UNIVERSITY, priority 2013, dated 2020), which cites them from elsewhere.

This series concerns Aβ treated rats. The note with it: Briyal et al., 2011; cited from earlier work.

Where a SMILES comes first, the peptide text is derived from it.

With `Cc1noc(NS(=O)(=O)c2cccc3c(N(C)C)cccc23)c1C` [BMS182874], the “Aβ induced oxidative stress and cognitive deficits” value was “prevent”.

As for `CC(C)C[C@@H]1NC(=O)[C@@H](C(C)C)NC(=O)[C@@H]2CCCN2C(=O)[C@@H](CC(=O)O)NC(=O)[C@@H](Cc2c[nH]c3ccccc23)NC1=O` [BQ123] (HELM PEPTIDE1{L.[dW].[dD].P.[dV]}$PEPTIDE1,PEPTIDE1,1:R1-5:R2$$$V2.0), the “Aβ induced oxidative stress and cognitive deficits” value is listed as “prevent”.
